Test results reported in patent US7135292B2, “Analysis and modification of gene expression in marine invertebrate cells” (Harbor Branch Oceanographic Institution, Inc., priority 2002, dated 2006).

Tested on: Axinella corrugata cell cultures
Assay: Human-sequence microarray (Gene Filters) analysis of gene expression, PHA-treated vs untreated sponge cell cultures
Format: cell-based
Conditions: PHA treated/untreated, 12 h
From the text: Sponge Cells. Cells were obtained from cryopreserved stocks at Harbor Branch Oceanographic Institution. All cells were derived from Axinella corrugata specimens collected in the waters of Florida, the Bahamas, and the Caribbean Sea, and were cryopreserved according to Pomponi et al. (Pomponi et al. 1997b supra). This sponge is relatively common and easy to collect, amenable to culture efforts, and produces the bioactive compound, stevensine, in vitro (Pomponi et al. 1997b supra). Enriched fractions of dissociated sponge cells were prepared, cryopreserved, and thawed according to previously published methods (Pomponi et al. 1997b supra). Cells were incubated at 22–25° C. in a growth medium consisting of a modified and supplemented commercial formulation (Willoughby and Pomponi 2000 supra). The length of the incubation period was based on my unpublished observation of elevated DNA and protein contents (9%, P=0.034, and 9%, P=0.038, respectively) in PHA-treated cultures, according to fluorescent assays of 6 replicate comparisons (Willoughby and Pomponi 2000 supra). Since the effects were observed between 6 and 18 hours after treatment, cells were cultured for 12-hour periods representing the center point of the period of observed changes. Two sets of cultures were incubated with approximately 2×10^8 cells per T-75 flask—a control set and an experimental set treated with 1.5% phytohemagglutinin (PHA) (Life Technologies, M-form).
RNA Isolation. RNA isolation was performed on unrinsed, pelleted cells. Pellets were quickly frozen in a dry ice alcohol bath and stored at −70° C. until RNA isolation. The Qiagen RNeasy® protocol was used, with the following modifications. Samples were disrupted with a micropestle or homogenized by the rotor-stator method, using twice the recommended volume of lysis solution. Prior to column loading, samples were centrifuged through a Qiashredder® column to complete homogenization and remove insoluble material. Supernatant was collected for use in the rest of the protocol. During the first wash step, samples were incubated on the column with DNase 1 (Qiagen or Ambion) for 15 minutes. After the final wash, samples were incubated on the column with the RNase free elution water for 15 minutes prior to elution. Sub-samples were diluted 20× and quantified on a Genequant® spectrophotometer.
cDNA Labeling. Sub-samples of the isolated total RNA (8 μl) were primed with oligo dT (10–20 mer) (Research Genetics, Inc.) for 10 minutes at 70° C., then briefly chilled on ice, followed by addition of 2 volumes of RT cocktail based upon the Life Technologies Superscript II® protocol (containing dATP, dGTP, dTTP, and α-^33P dCTP [NEN Easy Tides®, 3000 Ci/mmol]). The mixture was incubated for 90 minutes at 37° C., and diluted to 100 μl for purification on a Bio-Spin column (Boi-Rad) according to the Gene Filter® (Research Genetics, Inc.) recommended protocol. The resultant labeled probes were then denatured for 3 minutes in a boiling water bath prior to incorporation into the hybridization solution.
Microarrays. Research Genetics Gene Filters®, version 211, were employed in this study. These microarrays feature over 4000 distinct sequence-verified genes spotted onto a 5×7 cm nylon membrane. The DNA at each spot represents approximately 1 kb from the 3′ end of the gene. The microarrays also include spots of total genomic DNA (see FIG. 5). The 211 series is constructed from human sequences. A cross-referenced database listing of all the genes represented on the array is available at http://www.resgen.com. The 2 genes referenced in this work carry the I.M.A.G.E. Consortium (Lennon, G. G., C. Auffray, M. Polymeropoulos and M. B. Soares 1996, Genomics 33:151–152), Clone IDs 81408 (calcineurin B) and 858292 (cdc10).
Hybridization. […]

## phytohemagglutinin [PHA]
No. 1
  Ratio, MHC class II DQ-beta associated with DR2, DQw1 protein: 0.492
No. 2
  Ratio, Collagen, type II, alpha 1 (primary osteoarthritis, spondyloepiphyseal dysplasia, congenital): 0.384
No. 3
  Ratio, Hemoglobin, alpha 1: 0.157
No. 4
  Ratio, Heat shock 60 kD protein 1 (chaperonin): 2.443
No. 5
  Ratio, Interleukin 7 receptor: 0.156
No. 6
  Ratio, Cytochrome P450, subfamily IVA, polypeptide 11: 0.310
No. 7
  Ratio, Human metallothionein I-B gene: 0.388
No. 8
  Ratio, Homo sapiens NF-E2 protein (NF-E2) mRNA, complete cds: 2.223
No. 9
  Ratio, Tissue inhibitor of metalloproteinase 1 (erythroid potentiating activity, collagenase inhibitor): 0.252
No. 10
  Ratio, Adenylate kinase 1: 0.055
No. 11
  Ratio, Oxytocin receptor: 0.084
No. 12
  Ratio, Homo sapiens mRNA for epiregulin, complete cds: 0.101
No. 13
  Ratio, Collagen, type V, alpha: 0.137
No. 14
  Ratio, MpV17 transgene, murine homolog, glomerulosclerosis: 0.319
No. 15
  Ratio, Tyrosine 3-monooxygenase/tryptophan 5-monooxygenase activation protein, zeta polypeptide: 9.835
No. 16
  Ratio, Von Hippel-Lindau syndrome: 2.707
No. 17
  Ratio, Homo sapiens TNF-alpha stimulated ABC protein (ABC50) mRNA, complete cds: 3.865
No. 18
  Ratio, Human brain mRNA for photolyase homolog, complete cds: 2.486
No. 19
  Ratio, Human BTG2 (BTG2) mRNA, complete cds: 2.431
No. 20
  Ratio, Membrane metallo-endopeptidase (neutral endopeptidase, enkephalinase, CALLA, CD10): 0.169
No. 21
  Ratio, Calcineurin B: 0.318
No. 22
  Ratio, Cell division cycle 10 (homologous to CDC10 of S. cerevisiae): 2.302
No. 23
  Ratio, Human renal cell carcinoma antigen RAGE-1 mRNA, complete putative cds: 0.477
No. 24
  Ratio, Homo sapiens putative OSP like protein mRNA, partial cds: 0.491
No. 25
  Ratio, H. sapiens mRNA for translin associated protein X: 2.631
No. 26
  Ratio, H. sapiens mRNA for phosphate cyclase: 0.395
No. 27
  Ratio, JNK activating kinase 1: 0.170
No. 28
  Ratio, Collagen, type IX, alpha 3: 47.686
No. 29
  Ratio, Non-catalytic region of tyrosine kinase: 0.233
No. 30
  Ratio, Triosephosphate isomerase 1: 0.357
No. 31
  Ratio, Calreticulin Precursor: 12.868
No. 32
  Ratio, Human transportin (TRN) mRNA, complete cds: 3.328
No. 33
  Ratio, Fanconi anemia complementation group C: 0.342
No. 34
  Ratio, Zinc finger protein basonuclin: 0.417
No. 35
  Ratio, Autosomal dominant polycystic kidney disease type II: 0.224
No. 36
  Ratio, Double-stranded RNA adenosine deaminase: 0.456
No. 37
  Ratio, Dual specificity protein phosphatase PAC-1: 0.175
No. 38
  Ratio, Homo sapiens Tax interaction protein 33 mRNA, partial cds: 0.426
No. 39
  Ratio, H. sapiens mRNA for M-phase phosphoprotein, mpp5: 2.970
No. 40
  Ratio, Nucleolysin TIA-1: 0.430
No. 41
  Ratio, Homo sapiens mRNA for ISLR, complete cds: 12.597
No. 42
  Ratio, H. sapiens mRNA for M130 antigen: 0.443
No. 43
  Ratio, Human tRNA-guanine transglycosylase mRNA, complete cds: 0.213
No. 44
  Ratio, Homo sapiens mRNA for vesicle associated membrane protein 2 (VAMP2): 3.925
No. 45
  Ratio, Erythrocyte membrane protein band 4.9 (dematin): 0.408
No. 46
  Ratio, 6-Pyruvol tetrahydrobiopterin synthase: 0.440
No. 47
  Ratio, Villin: 0.008
No. 48
  Ratio, Multidrug reistance protein 1: 3.272
No. 49
  Ratio, Human histone H2B.1 mRNA, 3′ end: 0.247
No. 50
  Ratio, Human heregulin-betal gene, complete cds: 5.582
No. 51
  Ratio, Amyloid P component, serum: 3.994
No. 52
  Ratio, Alternative guanine nucleotide-binding regulatory protein (G) alpha-inhibitory-subunit: 0.462
No. 53
  Ratio, Ribosomal protein S6 kinase, 90 kD, polypeptide 2: 0.252
No. 54
  Ratio, Interleukin 15 receptor alpha chain: 3.996
No. 55
  Ratio, Cadherin 11 (OB-cadherin): 0.425
